Test results as given in patent US20080138284A1, “Novel Peptides That Promote Lipid Efflux” (Lipid Sciences, Inc., priority 2006, published 2008).
Ends that are not written are not given here.

Tests used:
[1] = system: apoE knockout and LDL-receptor knockout mice; test: Aortic atherosclerosis after ip peptide injection in ApoE knockout and LDL receptor knockout mice; type: in vivo, mouse; settings: 30 mg/kg ip three times per week, 4-5 or 8-10 weeks; 'proposed studies'
Method: ApoE knockout and LDL receptor knockout mice, two well established animal models for the study of atherosclerosis, are injected with either saline as control or the synthetic peptides of the present invention to ascertain if these peptides can be used to increase HDL and decrease atherosclerosis.
The mice receive 3 injections per week for either […] or 8-10 weeks. After the completion of the injection, the amount of hardening of the arteries or atherosclerosis is determined in the control injected animals and peptide injected animals to determine if the injections of the synthetic peptide decreased development of atherosclerosis.
The proposed studies test if intraperitoneal infusions of the apoA-I mimetic peptides of the present invention result in decreased aortic atherosclerosis in apoE and LDL receptor knockout mice, two well established mouse models of atherosclerosis.
Four to six week old C57B1/6 mice, apoE knockout (JAX 2052) and LDL-receptor knockout (JAX 2207) mice, all in the C57B1/6 background, are obtained from Jackson Laboratories. During the entire study, C57B1/6 and apoE knockout mice are maintained on a regular chow diet (0.02% cholesterol, 3% fat) and LDL-receptor mice are maintained on a Western diet (TD88137; Harlan Teklad; Madison, Wis. —containing 0.20% cholesterol and 21% fat).
In the first study (Infusion Study A), C57B1/6 mice as well as apoE knockout and LDL receptor knockout mice are injected by the intraperitoneal (ip) route or intravenous (iv) route with synthetic peptides of the present invention mimetic (30 mg/kg) on up to four different occasions two weeks apart. To evaluate changes in the plasma lipid and lipoprotein profile associated with injection of the synthetic peptide, blood for lipid analyses is obtained before and at 2, 4, 6, 24 and 48 hours after peptide injection. At the end of the study the animals are sacrificed.
For infusion studies B and C, mice are injected ip with either placebo or a synthetic peptide of the present invention (30 mg/kg) three times per week for either 4 to 5 weeks (Infusion Study B) or 8 to 10 weeks (Infusion Study C). Blood for lipid and lipoprotein analyses is obtained at the beginning of the study (day 0) and every two weeks after placebo/peptide injection and at the completion of the study. At the completion of the study (4 to 5 weeks for Infusion Study B and 8 to 10 weeks for Infusion Study C), the animals are sacrificed, organs harvested for analyses of cholesterol content and for aortic atherosclerosis.
For Infusion Study A, 5 four to six week old C57B1/6, apoE knockout (JAX 2052) and LDL receptor knockout (JAX 2207) control mice receive ip or iv injections of the synthetic peptide of the present invention for up to four times two weeks apart. The sequence of procedures for this study is as follows: • 1) Mice are first anaesthetized by using 1-3% isoflurane by inhalation prior to each ip injection to insure appropriate and complete delivery of placebo/peptide. • 2) Mice are injected with either placebo (0.2 ml saline) or apoA-I synthetic peptide (30 mg/kg in 0.2 ml saline) via either the intraperitoneal or intravenous route. • 3) In order to evaluate changes in the plasma lipids and lipoproteins in the time-frame between injections, each mouse in this study group is bled from the retro-orbital sinus following administration of a topical anesthesia. before and at 2, 4, 6, 24 and 48 hours after the peptide injection. No more than 300 ul blood is drawn during this 48 hour period. • 4) At the end of infusion study A all mice are sacrificed by using Avertin (2.5%, 0.011 ml/gm, ip) or ketamine (80 ug/gm, ip). […]

[2] = system: atherosclerotic coronary artery; test: Coronary atherosclerosis by IVUS in individuals with acute coronary syndrome; type: in vivo, human; settings: iv weekly for 5 to 8 weeks, on stable hypolipidemic drug therapy
Description: Individuals with acute coronary syndrome and documented atherosclerosis have a cardiac catherization with intravascular ultrasound (IVUS) to document coronary atherosclerosis of 20 to 50% obstruction in the target artery. Each individual is on stable hypolipidemic drug therapy and receives an acceptable dose of a peptide of the present invention and/or an associated fragment iv weekly for a period of 5 to 8 weeks. A repeat IVUS measurement is made at the end of the treatment period to assess the effect of the peptide infusion on coronary atherosclerosis in the target vessel.

Substance | aortic atherosclerosis compared to controls [1] | plaque in the atherosclerotic coronary artery (IVUS) [2]
Ac-Gly Glu Glu Met Arg Asp Arg Ala Arg Ala His Val Asp Ala Leu Arg Thr His Ala Lys Pro Val Leu Leu Glu Ser Phe Lys Val Ser Phe Leu Ser Ala Leu Glu Glu Tyr Thr Lys Lys-NH2 (Ac-GEEMRDRARAHVDALRTHAKPVLLESFKVSFLSALEEYTKK-NH2) [SEQ ID NO:354] | decrease aortic atherosclerosis compared to controls | reduce plaque in the atherosclerotic coronary artery
Ac-Leu Glu Ser Ala Lys Val Ser Ala Leu Ser Ala Leu Glu Glu Ala Thr Lys Lys Ala Lys Pro Val Leu Leu Glu Ser Phe Lys Val Ser Phe Leu Ser Ala Leu Glu Glu Tyr Thr Lys Lys-NH2 (Ac-LESAKVSALSALEEATKKAKPVLLESFKVSFLSALEEYTKK-NH2) [SEQ ID NO:372] | decrease aortic atherosclerosis compared to controls | reduce plaque in the atherosclerotic coronary artery
Ac-Ser Asp Glu Leu Arg Gln Arg Leu Ala Ala Arg Leu Glu Ala Leu Lys Glu Asn Ala Lys Pro Val Leu Leu Glu Ser Phe Lys Val Ser Phe Leu Ser Ala Leu Glu Glu Tyr Thr Lys Lys-NH2 (Ac-SDELRQRLAARLEALKENAKPVLLESFKVSFLSALEEYTKK-NH2) [SEQ ID NO:355] | decrease aortic atherosclerosis compared to controls | reduce plaque in the atherosclerotic coronary artery
GEEMRDRARAHVDALRTHAKPVLLESFKVSFLSALEEYTKK [SEQ ID NO:72] | decrease aortic atherosclerosis compared to controls | reduce plaque in the atherosclerotic coronary artery
LESAKVSALSALEEATKKAKPVLLESFKVSFLSALEEYTKK [SEQ ID NO:89] | decrease aortic atherosclerosis compared to controls | reduce plaque in the atherosclerotic coronary artery
SDELRQRLAARLEALKENAKPVLLESFKVSFLSALEEYTKK [SEQ ID NO:80] | decrease aortic atherosclerosis compared to controls | reduce plaque in the atherosclerotic coronary artery
